We go through two compounds from PMC9293909 (Nature Communications, 2022).

Several values for one entry are separate records, joined by “and”; a condition that tells them apart may be missing. Equal entries are not always repeated. Where two headings read alike, the source gives them in different places.

Data set [1] deals with T1, hA1R:Gi1 (Homo sapiens, UniProt P30542).
T1 construct: host or cells: CHO-K1-hA1R (made in-house), PTX-treated
Description: cAMP inhibition in PTX-treated CHO-K1-hA1R cells with PTX-insensitive Gi1. The format is cell-based. On the procedure: Cells were then incubated for 24 h before addition of 100 ng/ml PTX, to inhibit activity of endogenous Gαi/o, and then incubated for a further 16-18 h. Transfected cells were then assayed as per cAMP inhibition experiments, but co-stimulated with agonist and 100 nM forskolin.

In data set [2] the target is T2, hA1R Q293^8.48 alanine mutant (Homo sapiens, UniProt P30542, Q293A).
T2 construct: expressed in transfected cells
Nature of the data set: cAMP inhibition, Flp-In-CHO hA1R Q293A. The format is cell-based. As to conditions: Fig4j. The source says:
Cell lines were maintained using standard subculturing routines as guided by the European Collection of Cell Culture (ECACC) and checked annually for mycoplasma infection using an EZ-PCR mycoplasma test kit from Biological Industries (Kibbutz Beit-Haemek, Israel). To investigate the signalling properties of the rat A3R (rA3R) and mutants of the human A1R (hA1R), stable cell lines were generated using Flp-In-CHO cells (ThermoFisher - R75807). Untagged hA1R from sigNanoLuciferase (Nluc)-A1R in pcDNA3.1+ and untagged rA3R from sigNluc-A3R in pcDNA3.1 + (both gifted by Dr Steve Briddon (University of Nottingham)) were cloned into the pcDNA5/FRT expression vector (Thermo Fisher Scientific). Mutations within the hA1R were made using the QuikChange Lightening Site-Directed Mutagenesis Kit (Agilent Technologies) in accordance with the manufacturer’s instructions. Constructs for generating Goa/b interfering and scrambled peptides were generated by PCR and cloned into the BamHI/HindIII site of pcDNA3.1- as described in Gilchrist et al.[60],. Prior to the initiator codon a Kozak sequence was included for enhanced translation. The peptide sequences used were: for Goa […], for Gob […], and for the scrambled peptide […] was used. Constructs were sequenced to confirm fidelity. […]

For data set [3], the system named is respiration (f, VT, VE). Nature of the data set: Urethane-anaesthetised rat, respiration. On the procedure:
The femoral vein was catheterised for drug delivery.
Adult male Sprague–Dawley rats (400-500 g) were anaesthetised with urethane and instrumented as described above, with the exception that the arterial cannulation was not performed.
Changes in f, VT, and VE were measured. If the dosing occurred close to a respiratory event such as a sigh a second IV dose was administered, with 20 min recovery periods either side of the injection.

Where [4] appears, read: Fig6g, average, n 4, CPA alone or CPA + BnOCPA.
Where [5] appears, read: Fig6g, individual animal, CPA alone or CPA + BnOCPA.

T2 sequence (P30542 whole entry Q293A): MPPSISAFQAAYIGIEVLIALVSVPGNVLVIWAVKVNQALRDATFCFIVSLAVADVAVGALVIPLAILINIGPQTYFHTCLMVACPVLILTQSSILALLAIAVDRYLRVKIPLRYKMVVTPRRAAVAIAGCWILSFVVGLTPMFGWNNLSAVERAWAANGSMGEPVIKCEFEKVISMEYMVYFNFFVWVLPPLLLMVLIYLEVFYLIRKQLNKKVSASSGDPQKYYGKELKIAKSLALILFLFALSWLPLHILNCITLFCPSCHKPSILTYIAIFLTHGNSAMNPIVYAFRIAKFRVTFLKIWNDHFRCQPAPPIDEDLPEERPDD
T1 sequence (P30542 whole entry): as the sequence (P30542 whole entry Q293A) above, with A293Q counted along it

Regarding `OC[C@H]1O[C@@H](n2cnc3c(N[C@@H]4CCC[C@H]4O)ncnc32)[C@H](O)[C@@H]1O` [HOCPA, (2 R,3 R,4 S,5 R)−2-(6-{[(1 R,2 R)−2-hydroxycyclopentyl]amino}−9H-purin-9-yl)−5-(hydroxymethyl)oxolane-3,4-diol], in data set [1] (inhibition of forskolin-stimulated cAMP), the Emax is -37.1%. For the same compound, the EC50 in data set [1] (read-out: pEC50 Gi1 (converted)) is 8.91 nM. For the same compound, the IC50 in data set [2] (individual replicate, read-out: cAMP inhibition potency, 293A (converted)) is 3.61 nM and 7.23 nM and 5 nM and 4.17 nM and 2.86 nM and 3.71 nM; in data set [2] (read-out: cAMP inhibition potency, 293A, Average (converted)), 4.27 nM.
`OC[C@H]1O[C@@H](n2cnc3c(NC4CCCC4)ncnc32)[C@H](O)[C@@H]1O` [CPA, N^6-Cyclopentyladenosine]: in data set [3] (CPA 6 µg kg^−1 IV, resting 1.1 ± 0.1), the “tidal volume VT after injection” value amounted to 0.8 ± 0.1 mL. Moreover, the “respiratory frequency f after injection” value in data set [3] (CPA 6 µg kg^−1 IV, resting 143 ± 11) came out at 108 ± 10 BrPM. For the same compound, the “minute ventilation VE after injection” value in data set [3] (CPA 6 µg kg^−1 IV, resting 155 ± 28) came to 99 ± 19 mL/min. Further, in data set [3] (CPA 6 µg kg^−1 alone), the “effect on Freq (difference from previous baseline)” value was 52 ± 8 breaths/min and the “effect on VE (difference from previous baseline)” value was determined as 59 ± 9 mL/min. The “Frequency (respiration)” value in data set [3] (Fig6b, individual rat) was 97.7 and 153.2 and 77.8 and 92.8 and 134.8 and 131.4 and 100.3 and 76.5. Besides, the “Frequency (respiration), Average” value in data set [3] (Fig6b, n 8) was 108.1. The VT in data set [3] (Fig6c, individual rat) was 1 and 1.31 and 0.72 and 0.49 and 0.42 and 0.81 and 1.39. Moreover, the “VT, Average” value in data set [3] (Fig6c, n 8) is on record as 0.82. Besides, in data set [3] (setting [4]), the “Freq, Average” value is -52; the “VE, Average” value is on record as -59; the “VT, Average” value is recorded as -0.065. In data set [3] (setting [5]), the Freq is -58 and -41 and -36 and -72; the VE is -86 and -53 and -48 and -49; the VT was -0.31 and 0.1 and -0.15. In data set [3] (Fig6d, individual rat), the VE was 110 and 203 and 69 and 42 and 63 and 139 and 46 and 116. Besides, in data set [3] (Fig6d, n 8), the “VE, Average” value is 99.

What is called Emax is the size of the effect at its maximum, as opposed to the concentration needed.
